In patent publication US12187701B2, “Taire family kinase inhibitors and uses thereof” (Dana-Farber Cancer Institute, Inc., priority 2018, dated 2025):
Read-outs that look alike come from different tables or passages of the source.

Experiments:
CDK16/CycY = CDK16/CycY (Homo sapiens (Human), UniProt Q00536); test: Lanthascreen Eu kinase binding assay for CDK16/CycY
Description: Lanthascreen Eu kinase binding assays were conducted for CDK16/CycY at Life Technologies.

Cdk14 [1] = biological target: T1, Cdk14 (Homo sapiens (Human), UniProt O94921); test: Cdk14 33P kinase assay (Reaction Biology Corp.); format: biochemical
Target sequence in this assay (O94921 whole entry, looked up): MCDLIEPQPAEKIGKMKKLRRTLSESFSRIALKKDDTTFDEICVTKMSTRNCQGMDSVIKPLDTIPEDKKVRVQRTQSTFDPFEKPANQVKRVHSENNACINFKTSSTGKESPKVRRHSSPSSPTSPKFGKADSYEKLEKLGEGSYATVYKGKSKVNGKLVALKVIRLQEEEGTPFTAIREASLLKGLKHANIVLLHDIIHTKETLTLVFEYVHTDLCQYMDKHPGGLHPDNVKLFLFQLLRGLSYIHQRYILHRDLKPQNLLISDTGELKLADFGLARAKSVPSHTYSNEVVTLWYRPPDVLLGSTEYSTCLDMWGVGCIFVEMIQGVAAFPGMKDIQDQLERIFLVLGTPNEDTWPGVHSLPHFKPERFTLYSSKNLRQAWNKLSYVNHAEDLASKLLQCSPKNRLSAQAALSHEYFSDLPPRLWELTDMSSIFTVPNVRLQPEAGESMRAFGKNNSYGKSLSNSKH
Target sequence in this assay (Q8ND76 whole entry partner, looked up): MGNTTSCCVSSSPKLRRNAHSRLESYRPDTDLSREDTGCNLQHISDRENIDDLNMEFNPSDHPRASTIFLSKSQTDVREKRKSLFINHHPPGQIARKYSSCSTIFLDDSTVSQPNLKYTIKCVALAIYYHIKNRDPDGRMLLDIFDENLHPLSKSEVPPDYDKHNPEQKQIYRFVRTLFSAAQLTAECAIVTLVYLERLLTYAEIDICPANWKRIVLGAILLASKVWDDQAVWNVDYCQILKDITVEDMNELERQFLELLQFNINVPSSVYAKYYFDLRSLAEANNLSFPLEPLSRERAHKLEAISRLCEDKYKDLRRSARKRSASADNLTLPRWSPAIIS

Cdk14/CycY = Cdk14/CycY (Homo sapiens (Human), UniProt O94921); test: Lanthascreen Eu kinase binding assay for Cdk14/CycY with 30 minute pre-incubation; conditions: 30 minute pre-incubation of kinase with compound
Chain of Cdk14/CycY (O94921 whole entry): as the sequence (O94921 whole entry, looked up) above
Chain of Cdk14/CycY (Q8ND76 whole entry partner): as the sequence (Q8ND76 whole entry partner, looked up) above
Description: Lanthascreen Eu kinase binding assays were conducted for Cdk14/CycY largely as performed in the commercial assay service by Life Technologies, but included a 30 minute pre-incubation step of the kinase with candidate compounds to facilitate covalent bond formation.

CDK2/CycA = CDK2/CycA (Homo sapiens (Human), UniProt P24941); test: Z'LYTE kinase assay for CDK2/CycA at Km ATP; format: biochemical
HCT116 cells = test: Antiproliferation assay, Cell Titer Glo, 72 hours; format: cell-based
How it was run: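 HCT116 cells seeded at 750 cells/well in McCoy's 5A with 10% FBS and exposed to four-fold compound dilution series for 72 h at 37 °C, 5% CO2. Viability by CellTiter-Glo luminescence, quadruplicate; IC50 by non-linear regression.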

Cdk14 [2] = biological target: T1, Cdk14; test: Cellular pull down with biotinylated probe, CDK14; format: cell-based; conditions: HEK293 cells overexpressing Cdk14-flag, 4 hours treatment; for Cellular Potency by Pulldown: some cells print Y or N instead of a concentration;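 on all read-outs here: biotinylated probe used at 1 µM in lysates overnight at 4 °C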
Description: HEK293 cells overexpressing a Cdk14-flag fusion protein were treated with candidate compounds for 4 hours. Cells were washed with PBS, harvested and lysed in Pierce IP buffer with protease and phosphatase inhibitors (Roche). […] To enhance pulldown, lysates were incubated at room temperature for an additional 2 hours. […] Beads were then washed 3 times with Pierce IP buffer, then boiled at 95° C. for 5 minutes in 2× LDS+10% β-mercaptoethanol. Proteins of interest engaged by the biotinylated compound were then assessed using western blotting.
Target sequence in this assay (O94921 whole entry): as the sequence (O94921 whole entry, looked up) above

Cdk14 [3] = biological target: T1, Cdk14; test: Protein labeling and mass spectrometry analysis of recombinant Cdk14; format: binding; conditions: 10-fold molar excess of compound, 2 hours, room temperature
Target sequence in this assay (O94921 whole entry): as the sequence (O94921 whole entry, looked up) above
Description: For each analysis, 5 μg protein was injected onto a self-packed reversed phase column ( 1/32″ O.D.×500 um I.D., 5 cm of POROS 50R2 resin). After desalting for four minutes, protein was eluted with an HPLC gradient (0-100% B in 4 minutes, A=0.2M acetic acid in water, B=0.2 M acetic acid in acetonitrile, flow rate=10 μL/min) into an LTQ ion trap mass spectrometer (ThermoFisher). […] After reconstituting in 50% acetonitrile, 1% formic acid, 100 mM ammonium acetate, peptides were analyzed by CE-MS using a ZipChip CE system and autosampler interfaced to a QExactive HF mass spectrometer.^7 (ThermoFisher Scientific, San Jose, CA). Peptide solution was loaded for 30 seconds and separation performed at 500 V/cm on an HR chip for 10 minutes with a background electrolyte consisting of 1% formic acid in 50% acetonitrile. Pressure assist was utilized and started at 1 minute. The mass spectrometer was operated in data dependent mode and subjected the 5 most abundant ions in each MS scan (60 k resolution, 1E6 target, lock mass enabled) to MS/MS (15 k resolution, 2E5 target, 100 ms max inject time). Dynamic exclusion was enabled with a repeat count of 1 and an exclusion time of 6 seconds. MS/MS data was extracted to .mgf using mulitplierz scripts^8,9 and searched against a forward-reverse human NCBI refseq database using Mascot version 2.2. […]

CDK12 = CDK12 (Homo sapiens (Human), UniProt Q9NYV4); test: Cellular pull down with biotinylated probe, CDK12; format: cell-based; conditions: HEK293 cells, 4 hours treatment; Y/N/slight
Chain of CDK12 (Q9NYV4 whole entry, the tested form may be a part): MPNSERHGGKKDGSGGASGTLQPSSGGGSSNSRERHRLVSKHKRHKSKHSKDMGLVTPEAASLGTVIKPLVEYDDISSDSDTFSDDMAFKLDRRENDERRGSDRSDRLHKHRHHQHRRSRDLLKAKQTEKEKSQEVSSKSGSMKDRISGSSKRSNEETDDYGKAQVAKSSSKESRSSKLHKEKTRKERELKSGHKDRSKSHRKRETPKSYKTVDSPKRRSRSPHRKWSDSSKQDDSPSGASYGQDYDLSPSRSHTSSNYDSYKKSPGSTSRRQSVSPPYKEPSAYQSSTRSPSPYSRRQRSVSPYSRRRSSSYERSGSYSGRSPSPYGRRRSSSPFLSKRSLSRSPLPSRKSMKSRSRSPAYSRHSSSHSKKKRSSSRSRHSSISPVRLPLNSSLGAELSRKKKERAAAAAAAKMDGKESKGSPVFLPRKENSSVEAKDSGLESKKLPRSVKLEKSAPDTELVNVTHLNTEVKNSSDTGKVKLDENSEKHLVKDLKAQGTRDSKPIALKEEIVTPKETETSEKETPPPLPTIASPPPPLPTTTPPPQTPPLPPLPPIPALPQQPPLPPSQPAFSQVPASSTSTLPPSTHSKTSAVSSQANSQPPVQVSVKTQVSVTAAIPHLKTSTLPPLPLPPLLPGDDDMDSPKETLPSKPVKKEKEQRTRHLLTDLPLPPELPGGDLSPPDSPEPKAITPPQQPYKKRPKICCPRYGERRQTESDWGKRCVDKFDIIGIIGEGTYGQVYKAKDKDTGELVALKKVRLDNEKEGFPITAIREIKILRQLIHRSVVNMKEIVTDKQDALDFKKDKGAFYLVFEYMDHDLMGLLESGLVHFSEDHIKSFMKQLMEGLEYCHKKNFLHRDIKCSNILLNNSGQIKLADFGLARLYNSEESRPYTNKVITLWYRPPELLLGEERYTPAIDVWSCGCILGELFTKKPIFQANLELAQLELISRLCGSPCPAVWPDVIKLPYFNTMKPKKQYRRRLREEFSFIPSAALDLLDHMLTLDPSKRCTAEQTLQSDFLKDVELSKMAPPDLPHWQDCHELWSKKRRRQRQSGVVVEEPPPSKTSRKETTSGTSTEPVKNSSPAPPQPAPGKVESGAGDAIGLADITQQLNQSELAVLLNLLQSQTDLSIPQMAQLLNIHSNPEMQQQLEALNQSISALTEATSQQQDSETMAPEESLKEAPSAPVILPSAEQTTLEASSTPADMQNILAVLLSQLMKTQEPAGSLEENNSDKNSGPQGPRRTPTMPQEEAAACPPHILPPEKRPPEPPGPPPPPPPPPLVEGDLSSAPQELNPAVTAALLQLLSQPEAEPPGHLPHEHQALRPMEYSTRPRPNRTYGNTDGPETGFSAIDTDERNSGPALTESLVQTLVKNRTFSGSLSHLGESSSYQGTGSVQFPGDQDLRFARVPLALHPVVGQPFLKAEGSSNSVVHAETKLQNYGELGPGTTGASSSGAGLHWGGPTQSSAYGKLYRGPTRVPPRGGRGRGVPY
Description: HEK293 cells overexpressing a Cdk14-flag fusion protein were treated with candidate compounds for 4 hours. Cells were washed with PBS, harvested and lysed in Pierce IP buffer with protease and phosphatase inhibitors (Roche). […] To enhance pulldown, lysates were incubated at room temperature for an additional 2 hours. Lysates were then incubated with streptavidin agarose (Thermo scientific, cat. #20349) for 2 hours at 4° C. Beads were then washed 3 times with Pierce IP buffer, then boiled at 95° C. for 5 minutes in 2× LDS+10% β-mercaptoethanol. Proteins of interest engaged by the biotinylated compound were then assessed using western blotting. The results of the cellular pulldown protocol are provided in Tables 1 and 2A, 2B, 2C, and 2D below (Columns titled “CDK2 pulldown,” “CDK9 pulldown,” “CDK12 pulldown blocked,” “CDK14 pulldown blocked,” and “Cellular Potency Pulldown.”)

[4] = read-out: IC50 CDK16 Lanthascreen binding
[5] = read-out: IC50 CDK14 binding by Lanthascreen
[6] = read-out: IC50 CDK2 Z′LYTE kinase assay

Chain of CDK16/CycY (Q00536 whole entry): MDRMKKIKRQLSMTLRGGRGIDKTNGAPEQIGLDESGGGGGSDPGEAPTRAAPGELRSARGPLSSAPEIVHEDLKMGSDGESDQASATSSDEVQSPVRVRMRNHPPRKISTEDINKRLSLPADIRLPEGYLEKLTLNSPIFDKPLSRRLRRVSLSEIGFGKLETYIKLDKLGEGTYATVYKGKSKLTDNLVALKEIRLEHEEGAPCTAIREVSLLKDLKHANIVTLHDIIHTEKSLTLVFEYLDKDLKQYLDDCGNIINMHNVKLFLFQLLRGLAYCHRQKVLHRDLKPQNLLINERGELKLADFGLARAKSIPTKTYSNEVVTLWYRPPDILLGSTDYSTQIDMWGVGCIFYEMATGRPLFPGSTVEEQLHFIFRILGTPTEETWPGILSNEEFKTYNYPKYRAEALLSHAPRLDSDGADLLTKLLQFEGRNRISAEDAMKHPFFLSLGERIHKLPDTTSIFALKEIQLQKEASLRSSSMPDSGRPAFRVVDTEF
Chain of CDK16/CycY (Q8ND76 whole entry partner): as the sequence (Q8ND76 whole entry partner, looked up) above

C=CC(=O)Nc1cccc(C(=O)N2CCC(NC(=O)c3n[nH]cc3NC(=O)c3c(Cl)cccc3Cl)CC2)c1 [FMF-03-196-1, N-(1-(3-acrylamidobenzoyl)piperidin-4-yl)-4-(2,6-dichlorobenzamido)-1H-pyrazole-3-carboxamide]
IC50 (CDK16/CycY; [4]): 11.4 nM
IC50 (Cdk14 [1]): 36.5 nM
IC50 (Cdk14/CycY; [5]): 45 nM
IC50 (CDK2/CycA; [6]): 3.4 nM
IC50 (HCT116 cells; Homo sapiens, HCT-116, 72 h): 32 nM
Cellular Potency by Pulldown (Cdk14 [2]): 1000 nM

CN(C)C/C=C/C(=O)Nc1ccc(S(=O)(=O)N2CCC(NC(=O)c3n[nH]cc3NC(=O)c3c(Cl)cccc3Cl)CC2)cc1 [FMF-03-197-2, (E)-4-(2,6-dichlorobenzamido)-N-(1-((4-(4-(dimethylamino)but-2-enamido)phenyl)sulfonyl)piperidin-4-yl)-1H-pyrazole-3-carboxamide]
IC50 (CDK16/CycY; [4]): 1.2 nM
IC50 (Cdk14 [1]): 42.8 nM
IC50 (Cdk14/CycY; [5]): 2.6 nM
IC50 (CDK2/CycA; [6]): 2.8 nM
IC50 (HCT116 cells; Homo sapiens, HCT-116, 72 h): 23 nM

CN(C)C/C=C/C(=O)Nc1ccc(CN2CCC(NC(=O)c3n[nH]cc3NC(=O)c3c(Cl)cccc3Cl)CC2)cc1 [FMF-03-199-2, (E)-4-(2,6-dichlorobenzamido)-N-(1-(4-(4-(dimethylamino)but-2-enamido)benzyl)piperidin-4-yl)-1H-pyrazole-3-carboxamide]
IC50 (CDK16/CycY; [4]): 18.2 nM
IC50 (Cdk14 [1]): 786 nM
IC50 (Cdk14/CycY; [5]): 14 nM
IC50 (CDK2/CycA; [6]): 24 nM
IC50 (HCT116 cells; Homo sapiens, HCT-116, 72 h): 2.6 nM

CN(C)C/C=C/C(=O)Nc1cccc(C(=O)Nc2ccc(NC(=O)c3n[nH]cc3NC(=O)c3c(Cl)cccc3Cl)cc2)c1 [FMF-03-206-1, (E)-4-(2,6-dichlorobenzamido)-N-(4-(3-(4-(dimethylamino)but-2-enamido)benzamido)phenyl)-1H-pyrazole-3-carboxamide]
IC50 (CDK16/CycY; [4]): 56.8 nM
IC50 (Cdk14 [1]): 342 nM
IC50 (Cdk14/CycY; [5]): 17 nM
IC50 (CDK2/CycA; [6]): 22.4 nM
IC50 (HCT116 cells; Homo sapiens, HCT-116, 72 h): 37 nM
Cellular Potency by Pulldown (Cdk14 [2]): 1000 nM

CN(C)C/C=C/C(=O)Nc1ccc(C(=O)Nc2ccc(NC(=O)c3n[nH]cc3NC(=O)c3c(Cl)cccc3Cl)cc2)cc1 [FMF-04-012-2, (E)-4-(2,6-dichlorobenzamido)-N-(4-(4-(4-(dimethylamino)but-2-enamido)benzamido)phenyl)-1H-pyrazole-3-carboxamide]
IC50 (CDK16/CycY; [4]): 111 nM
IC50 (Cdk14 [1]): 560 nM
IC50 (Cdk14/CycY; [5]): 68 nM
IC50 (CDK2/CycA; [6]): 52.8 nM
IC50 (HCT116 cells; Homo sapiens, HCT-116, 72 h): 14 nM

C=CC(=O)Nc1cccc(S(=O)(=O)N2CCC(NC(=O)c3n[nH]cc3NC(=O)c3c(F)cc(F)cc3F)CC2)c1 [FMF-04-095-1, N-(1-((3-acrylamidophenyl)sulfonyl)piperidin-4-yl)-4-(2,4,6-trifluorobenzamido)-1H-pyrazole-3-carboxamide]
IC50 (Cdk14 [1]): > 1000 nM
IC50 (Cdk14/CycY; [5]): 122 nM
IC50 (CDK2/CycA; [6]): 7.5 nM
IC50 (HCT116 cells; Homo sapiens, HCT-116, 72 h): 7 nM

CN(C)C/C=C/C(=O)Nc1cccc(S(=O)(=O)N2CCC(NC(=O)c3n[nH]cc3NC(=O)c3c(F)cc(F)cc3F)CC2)c1 [FMF-04-095-2, (E)-N-(1-((3-(4-(dimethylamino)but-2-enamido)phenyl)sulfonyl)piperidin-4-yl)-4-(2,4,6-trifluorobenzamido)-1H-pyrazole-3-carboxamide]
IC50 (CDK16/CycY; [4]): 5.2 nM
IC50 (Cdk14 [1]): 380 nM
IC50 (Cdk14/CycY; [5]): 10.2 nM
IC50 (CDK2/CycA; [6]): 3.7 nM
IC50 (HCT116 cells; Homo sapiens, HCT-116, 72 h): 90 nM
Cellular Potency by Pulldown (Cdk14 [2]): 500 nM

CN(C)C/C=C/C(=O)Nc1cccc(S(=O)(=O)N2CCC(NC(=O)c3n[nH]cc3NC(=O)c3c(F)cccc3F)CC2)c1 [FMF-04-096-2, (E)-4-(2,6-difluorobenzamido)-N-(1-((3-(4-(dimethylamino)but-2-enamido)phenyl)sulfonyl)piperidin-4-yl)-1H-pyrazole-3-carboxamide]
IC50 (CDK16/CycY; [4]): 2.6 nM
IC50 (Cdk14 [1]): 268 nM
IC50 (Cdk14/CycY; [5]): 3.4 nM
IC50 (CDK2/CycA; [6]): 2.6 nM
IC50 (HCT116 cells; Homo sapiens, HCT-116, 72 h): 157 nM
Cellular Potency by Pulldown (Cdk14 [2]): 250 nM

C=CC(=O)Nc1cccc(S(=O)(=O)N2CCC(NC(=O)c3n[nH]cc3NC(=O)c3c(F)cccc3OC)CC2)c1 [FMF-04-097-1, N-(1-((3-acrylamidophenyl)sulfonyl)piperidin-4-yl)-4-(2-fluoro-6-methoxybenzamido)-1H-pyrazole-3-carboxamide]
IC50 (Cdk14 [1]): 88 nM
IC50 (Cdk14/CycY; [5]): 1.6 nM
IC50 (HCT116 cells; Homo sapiens, HCT-116, 72 h): 9 nM

COc1cccc(F)c1C(=O)Nc1c[nH]nc1C(=O)NC1CCN(S(=O)(=O)c2cccc(NC(=O)/C=C/CN(C)C)c2)CC1 [FMF-04-097-2, (E)-N-(1-((3-(4-(dimethylamino)but-2-enamido)phenyl)sulfonyl)piperidin-4-yl)-4-(2-fluoro-6-methoxybenzamido)-1H-pyrazole-3-carboxamide]
IC50 (CDK16/CycY; [4]): 2.8 nM
IC50 (Cdk14 [1]): 238 nM
IC50 (Cdk14/CycY; [5]): > 1000 nM
IC50 (CDK2/CycA; [6]): 3.7 nM
IC50 (HCT116 cells; Homo sapiens, HCT-116, 72 h): 174 nM
Cellular Potency by Pulldown (Cdk14 [2]): 250 nM

C=CC(=O)Nc1cccc(S(=O)(=O)N2CCC(NC(=O)c3n[nH]cc3NC(=O)c3c(Cl)cc(Cl)cc3Cl)CC2)c1 [FMF-04-159-1, N-(1-((3-acrylamidophenyl)sulfonyl)piperidin-4-yl)-4-(2,4,6-trichlorobenzamido)-1H-pyrazole-3-carboxamide]
IC50 (CDK16/CycY; [4]): 46.6 nM
IC50 (Cdk14 [1]): 1050 nM
IC50 (Cdk14/CycY; [5]): 49 nM
IC50 (CDK2/CycA; [6]): 20.6 nM
IC50 (HCT116 cells; Homo sapiens, HCT-116, 72 h): 25 nM
Cellular Potency by Pulldown (Cdk14 [2]): 500 nM

CN(C)C/C=C/C(=O)Nc1cccc(S(=O)(=O)N2CCC(NC(=O)c3n[nH]cc3NC(=O)c3c(Cl)cc(Cl)cc3Cl)CC2)c1 [FMF-04-159-2, (E)-N-(1-((3-(4-(dimethylamino)but-2-enamido)phenyl)sulfonyl)piperidin-4-yl)-4-(2,4,6-trichlorobenzamido)-1H-pyrazole-3-carboxamide]
IC50 (CDK16/CycY; read-out: CDK16 IC50): 10.1 nM
IC50 (CDK16/CycY; [4]): 8.2 nM
IC50 (Cdk14 [1]): 718 nM
IC50 (Cdk14/CycY; read-out: CDK14 IC50 (nM) LanthaScreen): 46.6 nM
IC50 (Cdk14/CycY; [5]): 47 nM
IC50 (CDK2/CycA; read-out: CDK2 IC50): 8.2 nM
IC50 (CDK2/CycA; [6]): 10.1 nM
IC50 (HCT116 cells): 450 nM
IC50 (HCT116 cells; Homo sapiens, HCT-116, 72 h): 450 nM
MS labeling of CDK14* (Cdk14 [3]): 100%
CDK12 pulldown blocked (CDK12): slight
CDK14 pulldown blocked (Cdk14 [2]): 500 nM
Cellular Potency by Pulldown (Cdk14 [2]): 500 nM

C=CC(=O)Nc1cccc(CN2CCC(NC(=O)c3n[nH]cc3NC(=O)c3c(F)cccc3F)CC2)c1 [FMF-04-160-1, N-(1-(3-acrylamidobenzyl)piperidin-4-yl)-4-(2,6-difluorobenzamido)-1H-pyrazole-3-carboxamide]
IC50 (CDK16/CycY; [4]): 120 nM
IC50 (Cdk14 [1]): 1470 nM
IC50 (Cdk14/CycY; [5]): 64 nM
IC50 (CDK2/CycA; [6]): 165 nM
IC50 (HCT116 cells; Homo sapiens, HCT-116, 72 h): 7 nM
Cellular Potency by Pulldown (Cdk14 [2]): 500 nM

C=CC(=O)Nc1cccc(CN2CCC(NC(=O)c3n[nH]cc3NC(=O)c3c(Cl)cccc3OC)CC2)c1 [FMF-04-161-1, N-(1-(3-acrylamidobenzyl)piperidin-4-yl)-4-(2-chloro-6-methoxybenzamido)-1H-pyrazole-3-carboxamide]
IC50 (CDK16/CycY; [4]): 12.8 nM
IC50 (Cdk14 [1]): 557 nM
IC50 (Cdk14/CycY; [5]): 11 nM
IC50 (CDK2/CycA; [6]): 50.2 nM
IC50 (HCT116 cells; Homo sapiens, HCT-116, 72 h): 9 nM
Cellular Potency by Pulldown (Cdk14 [2]): 100 nM

CCOc1cccc(Cl)c1C(=O)Nc1c[nH]nc1C(=O)NC1CCN(S(=O)(=O)c2cccc(NC(=O)/C=C/CN(C)C)c2)CC1 [FMF-05-118-1, (E)-4-(2-chloro-6-ethoxybenzamido)-N-(1-((3-(4-(dimethylamino)but-2-enamido)phenyl)sulfonyl)piperidin-4-yl)-1H-pyrazole-3-carboxamide]
IC50 (CDK16/CycY; read-out: CDK16 IC50): 2.9 nM
IC50 (CDK16/CycY; [4]): 2.91 nM
IC50 (CDK2/CycA; read-out: CDK2 IC50): 2.9 nM
IC50 (CDK2/CycA; [6]): 2.95 nM
IC50 (HCT116 cells; Homo sapiens, HCT-116, 72 h): 102 nM
MS labeling of CDK14* (Cdk14 [3]): 50%
CDK14 pulldown blocked (Cdk14 [2]): 1000 nM
Cellular Potency by Pulldown (Cdk14 [2]): 1000 nM
